Each structure is given as a SMILES string. pIC50: −log10 of the molar value.

For this assay, the target named is Human TRPA1 (Homo sapiens (Human), UniProt O75762). Kind of assay: FLIPR based intracellular Ca2+ assay and membrane potential assay, AITC-activated TRPA1. Format: cell-based. The following applies: hTRPA1 transiently expressed in HEK293-F cells, AITC as agonist. On the procedure: Molecular biology and transient expression were performed as described in Chen, J. et al., Journal of Biomolecular Screening 2007, 12, 61-69. Briefly, TRPA1 full length cDNA was amplified from human dorsal root ganglia total RNA (BD Bioscience Clontech, Palo Alto, Calif., USA) and was cloned into pcDNA3.1/V5-His Topo vector (Invitrogen, Carlsbad, Calif.). Large scale transient transfection was performed using the FreeStyle™ 293 Expression System as recommended by the manufacturer (Invitrogen). HEK293-F cells were grown in suspension in flasks (cell volume 30 ml, to 1 liter) or in a Wave Bioreactor (Wave Biotech, Somerset, N.J. (6 liters). To support high density, suspension culture and transfection, cells were cultured in Free Style 293 media, an optimized, serum free formulation. 293fectin™ (Invitrogen) was used as transfection reagent. In a transfection of 3×10^7 cells (30 mL volume), 30 μg of plasmid DNA and 40 μL 293 fectin were used. For a larger volume transfection, each reagent was scaled up proportionally. Two days post-transfection, cells were harvested by centrifugation (1000×g, 5 minutes) and resuspended to a density of 1.5×10^7 cells/mL in freezing medium (Freestyle media/10% serum/10% DMSO). Cells were transferred into cryovials in 2 mL aliquots, and these vials were placed in Nalgene Mr. Frosty slow-freeze devices (Sigma-Aldrich, St. Louis, Mo.) at −80° C. As needed, vials were removed from −80° C. and quickly thawed in a 37° C. water bath. Cells were aseptically transferred into conical tubes containing Freestyle media (10 mL/vial). After centrifugation at 1,000×g for 3-5 minutes, medium was removed by aspiration and cells were resuspended in Freestyle medium at desired densities (typically 1×10^6 cells/mL). Re-suspended cells were seeded into black-walled clear-bottom 96-well Biocoat™ poly-D-lysine assay plated (BD Biosciences, Bedford, Mass.) (10^5 cells/well) and incubated overnight at 37° C. under a humidified 5% CO2 atmosphere.
Sequence of Human TRPA1 (O75762 whole entry): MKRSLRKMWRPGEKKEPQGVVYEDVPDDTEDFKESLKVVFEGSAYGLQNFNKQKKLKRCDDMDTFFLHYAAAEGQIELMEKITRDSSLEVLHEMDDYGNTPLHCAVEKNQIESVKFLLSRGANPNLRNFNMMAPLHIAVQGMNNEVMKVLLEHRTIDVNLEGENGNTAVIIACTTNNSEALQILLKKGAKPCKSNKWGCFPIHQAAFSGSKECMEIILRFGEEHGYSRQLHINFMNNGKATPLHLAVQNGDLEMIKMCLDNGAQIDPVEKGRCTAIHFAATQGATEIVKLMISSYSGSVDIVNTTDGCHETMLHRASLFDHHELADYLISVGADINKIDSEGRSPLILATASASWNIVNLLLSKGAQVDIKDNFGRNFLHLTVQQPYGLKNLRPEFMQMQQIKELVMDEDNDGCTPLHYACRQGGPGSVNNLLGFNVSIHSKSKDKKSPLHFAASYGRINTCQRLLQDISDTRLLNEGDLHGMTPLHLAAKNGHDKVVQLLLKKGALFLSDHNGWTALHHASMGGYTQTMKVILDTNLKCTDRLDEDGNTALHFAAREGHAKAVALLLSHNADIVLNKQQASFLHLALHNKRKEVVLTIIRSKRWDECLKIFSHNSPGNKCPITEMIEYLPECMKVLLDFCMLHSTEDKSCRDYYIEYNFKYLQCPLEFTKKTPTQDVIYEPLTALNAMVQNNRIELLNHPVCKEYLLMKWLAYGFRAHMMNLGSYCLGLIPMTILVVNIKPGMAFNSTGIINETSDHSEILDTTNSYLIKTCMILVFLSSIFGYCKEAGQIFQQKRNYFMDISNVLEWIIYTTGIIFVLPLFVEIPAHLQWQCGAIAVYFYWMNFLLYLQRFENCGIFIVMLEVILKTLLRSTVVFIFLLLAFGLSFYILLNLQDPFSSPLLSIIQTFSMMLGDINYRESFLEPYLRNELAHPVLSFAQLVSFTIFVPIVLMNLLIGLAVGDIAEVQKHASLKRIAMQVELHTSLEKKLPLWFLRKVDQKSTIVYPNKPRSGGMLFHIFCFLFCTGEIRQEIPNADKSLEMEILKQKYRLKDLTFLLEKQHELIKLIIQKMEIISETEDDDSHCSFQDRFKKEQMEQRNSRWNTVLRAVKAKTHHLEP
Ca^2+ influx was measured using a FLIPR calcium assay kit (R8033; Molecular Devices, Sunnyvale, Calif.). The Ca^2+ indicator dye was dissolved in Hanks' balanced salt solution supplemented with 20 mM HEPES buffer (HBSS/HEPES) according to the manufacturer instructions. Prior to start of the assay, the medium was removed by aspiration, and cells were loaded with 100 μL Ca^2+ dye for 2 to 3 hours at room temperature. AITC (allyl isothiocyanate) was used to activate and open the channels. (4×) solutions of the test compounds were prepared in HBSS/HEPES, and 50 μL were added to the cells at a delivery rate of 10 μL/sec. Changes in fluorescene were measured over time in a fluorometric imaging plate reader (FLIPR), Molecular Devices). Two additions were made over the course of an experimental run. For agonist experiments, assay buffer was added at the 10 s time point, followed by addition of agonist at the 3 minute 10 sec time point. For antagonist experiments, the antagonist was added at the 10 sec time point, followed by addition of the agonist 3 minutes later. Final assay volume for both the agonist and antagonist experiments was 200 μL. Total length of an experimental run was 6.5 minutes.
Data was analyzed with GraphPad Prism® software (GraphPad Software, San Diego, Calif.), using a four-parameter logistic Hill equation to curve-fit concentration-effect data and derive EC50 or IC50 values. Numerical values are reported as mean±SEM (n=number of experiments). SEM is calculated by dividing the standard deviation by the square root of the sample size […].
Changes in membrane potential were measured in hTRPA1-expressing LSTT cells using a FLIJPR membrane potential assay kit (R8034, Molecular Devices). The procedure for thawing and plating the LSTT cells was identical to the Ca^2+ influx assay (see above). […]
Compound `CCC(=N\O)/C(C)=C/c1cccnc1` [Example 5, (1E,3E)-2-methyl-1-pyridin-3-ylpent-1-en-3-one oxime] showed a pIC50 of 4.77. For the compound `CCC(=N\O)/C(C)=C/c1ccc(OC)nc1` [Example 3, (1E,3E)-1-(6-methoxypyridin-3-yl)-2-methylpent-1-en-3-one oxime], the pIC50 is 4.63. For `CCC(=N\O)/C(C)=C/c1cnccc1C` [Example 9, (1E,3E)-2-methyl-1-(4-methylpyridin-3-yl)pent-1-en-3-one oxime], the pIC50 was under 4.00. Then `CCC(=N\O)/C(C)=C/c1ccc(C)nc1` [Example 7, (1E,3E)-2-methyl-1-(6-methylpyridin-3-yl)pent-1-en-3-one oxime], with under 4.00; and `CCC(=N\O)/C(C)=C/c1ccncc1` [Example 6, (1E,3E)-2-methyl-1-pyridin-4-ylpent-1-en-3-one oxime], with 5.06. In turn, `CCC(=N\O)/C(C)=C/c1cnc2ccccc2c1` [Example 8, (1E,3E)-2-methyl-1-quinolin-3-ylpent-1-en-3-one oxime] gave a pIC50 of under 4.00. Turning to `CCC(=N\O)/C(C)=C/c1ccsc1` [Example 4, (1E,3E)-2-methyl-1-thien-3-ylpent-1-en-3-one oxime], the pIC50 was 5.88.

`CCC(=N\O)/C(C)=C/c1cncc2ccccc12` [Example 11, (1E,3E)-1-(isoquinolin-4-yl)-2-methylpent-1-en-3-one oxime] had a pIC50 of under 4.00. `CCC(=N\O)/C(C)=C/c1ccc(F)nc1` [Example 1, (1E,3E)-1-(6-fluoropyridin-3-yl)-2-methylpent-1-en-3-one oxime] had a pIC50 of 5.90.

Consider `CCC(=N\O)/C(C)=C/c1ccc(C(F)(F)F)nc1` [Example 10, (1E,3E)-2-methyl-1-[6-(trifluoromethyl)pyridin-3-yl]pent-1-en-3-one oxime], for which the pIC50 was under 4.00.

In the case of `CCC(=N\O)/C(C)=C/c1cccs1` [Example 2, (1E,3E)-2-methyl-1-thien-2-ylpent-1-en-3-one oxime], the pIC50 is 4.96.

Broadly, the pIC50 is the negative decadic logarithm of the IC50, by convention in mol/L. Read a high pIC50 as a small IC50.

(Values after US9751850B2, “TRPA1 antagonists” (AbbVie Inc., priority 2008, dated 2017).)
